Measured values as given in ChEMBL document CHEMBL5465560, “Selectivity Literature for EUbOPEN Chemogenomic Library” (2024).

Tests used:
[1] = biological target: G protein-coupled receptor kinase 5 (Homo sapiens, UniProt P34947); assay: Selectivity interaction (Kinase panel (Invitrogen)) EUB0000639a GRK5; conditions: at 200 nM
[2] = biological target: T1, Phosphatidylinositol 3-kinase C2 domain-containing subunit gamma (Homo sapiens) (UniProt O75747); assay: Selectivity interaction (KinomeScan (DiscoverX)) EUB0000045b PIK3C2G
T1 sequence (whole entry): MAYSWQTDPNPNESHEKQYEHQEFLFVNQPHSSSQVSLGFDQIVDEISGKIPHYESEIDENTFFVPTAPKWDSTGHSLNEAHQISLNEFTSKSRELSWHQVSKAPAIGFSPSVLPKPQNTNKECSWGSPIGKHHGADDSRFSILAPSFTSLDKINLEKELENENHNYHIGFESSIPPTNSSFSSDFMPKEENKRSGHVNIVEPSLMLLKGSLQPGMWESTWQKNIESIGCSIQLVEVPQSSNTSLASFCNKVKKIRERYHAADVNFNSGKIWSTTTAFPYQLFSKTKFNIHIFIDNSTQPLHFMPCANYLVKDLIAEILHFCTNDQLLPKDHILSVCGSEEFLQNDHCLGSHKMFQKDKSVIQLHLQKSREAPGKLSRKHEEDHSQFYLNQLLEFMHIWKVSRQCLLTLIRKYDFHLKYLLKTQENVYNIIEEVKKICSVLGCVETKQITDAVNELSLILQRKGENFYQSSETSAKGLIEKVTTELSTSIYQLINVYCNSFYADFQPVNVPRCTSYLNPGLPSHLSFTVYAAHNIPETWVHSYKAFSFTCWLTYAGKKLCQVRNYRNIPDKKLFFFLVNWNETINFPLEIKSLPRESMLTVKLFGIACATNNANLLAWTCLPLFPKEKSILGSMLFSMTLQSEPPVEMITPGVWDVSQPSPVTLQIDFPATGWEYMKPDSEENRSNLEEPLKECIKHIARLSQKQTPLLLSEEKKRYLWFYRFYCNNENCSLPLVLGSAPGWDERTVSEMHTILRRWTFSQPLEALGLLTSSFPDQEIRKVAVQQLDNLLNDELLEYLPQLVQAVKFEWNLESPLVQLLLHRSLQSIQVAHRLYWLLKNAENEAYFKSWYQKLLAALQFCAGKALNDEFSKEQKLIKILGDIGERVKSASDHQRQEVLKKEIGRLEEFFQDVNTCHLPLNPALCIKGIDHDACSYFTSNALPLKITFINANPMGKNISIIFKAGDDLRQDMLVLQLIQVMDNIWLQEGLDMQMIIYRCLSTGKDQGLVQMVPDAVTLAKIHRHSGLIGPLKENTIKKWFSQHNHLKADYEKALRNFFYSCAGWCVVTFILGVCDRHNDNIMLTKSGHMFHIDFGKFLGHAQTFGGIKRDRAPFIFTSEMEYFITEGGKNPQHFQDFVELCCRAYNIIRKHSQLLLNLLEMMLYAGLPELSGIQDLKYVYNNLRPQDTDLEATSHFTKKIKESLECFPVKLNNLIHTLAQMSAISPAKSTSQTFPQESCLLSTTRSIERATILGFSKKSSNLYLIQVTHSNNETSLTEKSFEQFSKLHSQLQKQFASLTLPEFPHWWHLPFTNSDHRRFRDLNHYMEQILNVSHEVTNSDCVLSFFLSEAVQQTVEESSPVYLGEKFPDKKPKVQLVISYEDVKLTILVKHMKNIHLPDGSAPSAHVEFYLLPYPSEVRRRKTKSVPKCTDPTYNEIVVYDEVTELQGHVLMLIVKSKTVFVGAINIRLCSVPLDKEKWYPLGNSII

[3] = biological target: T2, Inhibitor of nuclear factor kappa-B kinase subunit epsilon (Homo sapiens) (UniProt Q14164); assay: Selectivity interaction (KinomeScan (DiscoverX)) EUB0000655a IKBKE; conditions: at 10 µM
T2 sequence (whole entry): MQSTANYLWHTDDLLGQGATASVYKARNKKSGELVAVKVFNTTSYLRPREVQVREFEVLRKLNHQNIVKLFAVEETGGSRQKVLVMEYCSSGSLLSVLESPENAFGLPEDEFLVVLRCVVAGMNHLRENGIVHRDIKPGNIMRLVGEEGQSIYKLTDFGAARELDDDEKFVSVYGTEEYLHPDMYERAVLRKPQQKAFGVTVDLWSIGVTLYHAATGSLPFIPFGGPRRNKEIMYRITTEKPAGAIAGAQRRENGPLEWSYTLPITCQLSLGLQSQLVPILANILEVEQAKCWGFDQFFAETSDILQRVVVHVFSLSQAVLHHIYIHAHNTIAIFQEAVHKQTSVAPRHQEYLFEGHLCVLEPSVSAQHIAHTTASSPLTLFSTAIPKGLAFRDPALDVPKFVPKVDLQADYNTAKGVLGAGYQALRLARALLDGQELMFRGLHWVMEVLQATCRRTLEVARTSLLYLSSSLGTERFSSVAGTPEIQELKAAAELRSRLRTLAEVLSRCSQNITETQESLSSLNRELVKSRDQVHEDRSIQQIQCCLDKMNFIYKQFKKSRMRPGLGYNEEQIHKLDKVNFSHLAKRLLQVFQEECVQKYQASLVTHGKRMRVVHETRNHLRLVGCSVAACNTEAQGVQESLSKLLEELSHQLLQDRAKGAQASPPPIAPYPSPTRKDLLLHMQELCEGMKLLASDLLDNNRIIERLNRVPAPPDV

[4] = biological target: T3, Testis-specific serine/threonine-protein kinase 3 (Homo sapiens) (UniProt Q96PN8); assay: Selectivity interaction (SelectScreen profiling (Invitrogen)) EUB0000607a TSSK3; conditions: at 2 µM
T3 sequence (whole entry): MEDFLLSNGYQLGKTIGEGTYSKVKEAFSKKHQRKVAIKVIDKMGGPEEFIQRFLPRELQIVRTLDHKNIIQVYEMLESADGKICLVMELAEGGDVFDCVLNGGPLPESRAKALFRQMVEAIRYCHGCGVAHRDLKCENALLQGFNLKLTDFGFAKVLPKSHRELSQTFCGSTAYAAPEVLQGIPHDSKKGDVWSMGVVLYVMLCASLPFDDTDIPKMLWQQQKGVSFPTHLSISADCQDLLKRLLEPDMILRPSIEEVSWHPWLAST

[5] = biological target: Non-receptor tyrosine-protein kinase TYK2 (Homo sapiens, UniProt P29597); assay: Selectivity interaction (KinomeScan (DiscoverX)) EUB0001868a TYK2; conditions: at 1 µM
Non-receptor tyrosine-protein kinase TYK2, sequence (P29597 whole entry): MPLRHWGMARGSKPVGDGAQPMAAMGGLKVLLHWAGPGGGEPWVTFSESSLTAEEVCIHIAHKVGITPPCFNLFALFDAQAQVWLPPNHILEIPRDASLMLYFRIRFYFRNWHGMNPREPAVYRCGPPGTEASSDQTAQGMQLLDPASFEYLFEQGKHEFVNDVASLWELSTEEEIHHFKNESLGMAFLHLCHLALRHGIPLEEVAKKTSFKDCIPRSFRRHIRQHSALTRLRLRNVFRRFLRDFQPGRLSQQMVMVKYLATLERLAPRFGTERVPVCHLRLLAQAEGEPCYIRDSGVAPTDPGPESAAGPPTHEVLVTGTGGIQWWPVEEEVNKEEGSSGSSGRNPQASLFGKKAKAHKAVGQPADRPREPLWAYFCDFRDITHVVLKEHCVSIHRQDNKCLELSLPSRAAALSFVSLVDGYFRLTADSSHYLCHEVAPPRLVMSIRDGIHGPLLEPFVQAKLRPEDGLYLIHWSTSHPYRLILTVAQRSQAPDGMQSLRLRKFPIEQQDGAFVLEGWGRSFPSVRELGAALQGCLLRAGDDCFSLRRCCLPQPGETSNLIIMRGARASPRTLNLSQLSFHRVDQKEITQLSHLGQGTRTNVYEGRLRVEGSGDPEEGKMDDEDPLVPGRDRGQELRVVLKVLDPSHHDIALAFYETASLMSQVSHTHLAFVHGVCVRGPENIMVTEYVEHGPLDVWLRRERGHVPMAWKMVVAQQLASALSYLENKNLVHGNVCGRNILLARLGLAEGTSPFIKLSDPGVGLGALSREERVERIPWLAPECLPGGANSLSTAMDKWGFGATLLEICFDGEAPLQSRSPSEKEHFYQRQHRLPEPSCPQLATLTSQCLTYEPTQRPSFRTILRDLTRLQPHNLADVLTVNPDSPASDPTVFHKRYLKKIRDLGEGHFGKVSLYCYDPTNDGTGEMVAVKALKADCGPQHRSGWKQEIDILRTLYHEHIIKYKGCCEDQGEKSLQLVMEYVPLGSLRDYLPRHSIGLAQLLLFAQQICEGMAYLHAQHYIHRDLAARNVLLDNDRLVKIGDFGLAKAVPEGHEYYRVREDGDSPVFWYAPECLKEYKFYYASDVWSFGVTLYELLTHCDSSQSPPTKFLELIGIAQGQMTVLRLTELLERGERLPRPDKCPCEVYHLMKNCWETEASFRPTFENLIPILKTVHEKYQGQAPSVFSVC

G protein-coupled receptor kinase 5, sequence (P34947 whole entry, looked up, the tested form may be a part): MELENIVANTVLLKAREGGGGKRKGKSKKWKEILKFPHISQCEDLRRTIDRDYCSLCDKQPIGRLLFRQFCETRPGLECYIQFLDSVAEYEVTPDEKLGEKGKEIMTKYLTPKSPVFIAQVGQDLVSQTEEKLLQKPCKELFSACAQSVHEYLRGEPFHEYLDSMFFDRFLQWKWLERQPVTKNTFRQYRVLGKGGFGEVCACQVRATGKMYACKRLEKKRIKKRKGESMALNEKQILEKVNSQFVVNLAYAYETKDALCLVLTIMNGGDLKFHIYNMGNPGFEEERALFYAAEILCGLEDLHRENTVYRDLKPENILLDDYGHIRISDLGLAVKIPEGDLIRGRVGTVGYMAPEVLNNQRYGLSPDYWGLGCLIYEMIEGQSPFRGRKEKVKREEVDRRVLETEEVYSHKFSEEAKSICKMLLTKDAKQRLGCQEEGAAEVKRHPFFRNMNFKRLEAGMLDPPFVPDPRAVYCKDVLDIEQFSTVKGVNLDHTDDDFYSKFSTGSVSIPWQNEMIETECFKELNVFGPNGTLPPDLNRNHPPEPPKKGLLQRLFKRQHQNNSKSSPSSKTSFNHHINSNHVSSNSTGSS

CC[C@@H]1[C@H](F)C(=O)N[C@@H]1COc1nccc2cc(C(N)=O)c(OC)cc12 [ZIMLOVISERTIB]
% of inhibition [1]: 0.578%

C=CC(=O)Nc1cc(-n2c(=O)ccc3cnc4ccc(-c5ccc(NS(C)(=O)=O)cc5)cc4c32)ccc1C
% of control ([2]; at 1 µM): 100%
% of control ([2]; at 10 µM): 8.7%

CN(C)CCOc1ccc(-c2nc(-c3ccncc3)c(-c3ccc4c(c3)CC/C4=N\O)[nH]2)cc1
% of control [3]: 85%

CNC(=O)Nc1ccc(-c2nc(N3CC4CCC(C3)O4)c3cnn(C4CCC5(CC4)OCCO5)c3n2)cc1
% of inhibition [4]: 3%

Cc1cc(-c2ccnc(Nc3cnn(C)c3)n2)ccc1CNC(=O)N1CC(OC(C)C)C1
% of control [5]: 47%
